Results published in US20240189387A1, “DOSING REGIMENS FOR HEMATOPOIETIC STEM CELL MOBILIZATION FOR STEM CELL TRANSPLANTS IN MULTIPLE MYELOMA PATIENTS” (Ensoma, Inc., priority 2021, published 2024).

What was measured:
[1] = tested on: hematopoietic stem and progenitor cells; settings: cited from earlier work
CXCR2 = biological target: T1, CXCR2 (Homo sapiens, UniProt P25025); assay: Phase 1 trial: CXCR2 expression on peripheral blood neutrophils; assay type: in vivo
T1 construct: endogenous in cells; host or cells: peripheral blood neutrophils of dosed subjects (in vivo)
T1 sequence (P25025 1-360): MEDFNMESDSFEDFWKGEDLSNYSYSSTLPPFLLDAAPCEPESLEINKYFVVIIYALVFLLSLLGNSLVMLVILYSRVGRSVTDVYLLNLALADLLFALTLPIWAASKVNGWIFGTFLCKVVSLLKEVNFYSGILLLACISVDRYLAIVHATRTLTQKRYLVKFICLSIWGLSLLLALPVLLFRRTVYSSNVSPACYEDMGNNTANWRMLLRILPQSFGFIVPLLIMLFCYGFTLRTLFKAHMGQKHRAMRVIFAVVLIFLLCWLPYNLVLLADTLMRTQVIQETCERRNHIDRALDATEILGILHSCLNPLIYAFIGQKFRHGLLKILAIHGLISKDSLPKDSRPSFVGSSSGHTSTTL

CD34+ cells [2] = assay: Phase 1 trial: mobilization of CD34+ cells into peripheral blood (multicolor flow cytometry); settings: for Percent ≥20/μL / Peak CD34+ (#/μL) Median: Part A
[3] = Phase 1 trial: treatment emergent adverse events; settings: Part A, n = 24
Description: FIG. 1A depicts the treatments provided to patient cohorts enrolled in Part A and Part B of a Phase 1 clinical trial as well as measurable endpoints.
Patients were monitored for emergent adverse events.

[4] = tested on: neutrophil activation markers (L-selectin, CD11b, CD18, CD66); assay: Phase 1 trial: neutrophil activation markers (flow cytometry); assay type: in vivo, human; settings: MGTA-145 monotherapy
Protocol: (§1) Additionally, blood samples were analyzed by multicolor flow cytometry to quantify changes in expression of neutrophil activation markers such as L-selectin, CD11b, CD18, and CD66. Additionally, matrix metalloproteinase 9 (MMP-9), a neutrophil protease believed to mediate mobilization in response to MGTA-145, as well as its cognate inhibitor, TIMP-1, were quantified in plasma samples collected at the same time points by sandwich immunoassay.

neutrophils = assay: Phase 1 trial: mobilization of neutrophils (automated hematology analyzer); settings: MGTA-145 monotherapy
Protocol: (§2) The dose of MGTA-145 was one of 0.0075 mg/kg, 0.015 mg/kg, 0.03 mg/kg, 0.075 mg/kg, 0.15 mg/kg, or 0.3 mg/kg. […] The dose of MGTA-145 was one of 0.015 mg/kg, 0.03 mg/kg, 0.075 mg/kg, or 0.15 mg/kg. […] The dose of MGTA-145 was one of 0.03 mg/kg or 0.075 mg/kg.
(§3) Mobilization of white blood cells (WBCs), neutrophils, lymphocytes, basophils, and eosinophils was quantified by automated hematology analyzer.

[5] = tested on: neutrophil and platelet engraftment; assay type: in vivo
MMP-9 = assay: Phase 1 trial: plasma MMP-9 and TIMP-1 (sandwich immunoassay); assay type: in vivo, human; settings: MGTA-145 monotherapy, all six doses
Protocol: as §1

CD34+ cells [6] = assay: Phase 1 trial Part D: apheresis collection yield; settings: 2 h stagger after plerixafor
Protocol: as §2
The table documents the body weight of each subject, the total CD34+ cells that were obtained through the apheresis procedure, the normalized CD34+ cells/kg of body weight, and the percentage of CD34+ cells that were CD90+CD45RA−.
The table documents the total CD34+ cells that were obtained through the apheresis procedure, the normalized CD34+ cells/kg of body weight, and the percentage of CD34+ cells that were CD90+CD45RA−.

CD34+CD90+CD45RA− cells = assay: Phase 1 trial: mobilization of CD34+CD90+CD45RA− cells into peripheral blood (flow cytometry)
white blood cells (WBCs) = assay: Phase 1 trial: mobilization of white blood cells (automated hematology analyzer); settings: MGTA-145 monotherapy
Protocol: as §2, §3

[7] = tested on: LT-HSC cells (Lin−c-Kit+Sca1+CD150+CD48−); assay: Mobilization in mice and primary/secondary transplantation at limit dilution; assay type: in vivo; settings: compared to the other cohorts
Description: Mice (CD45.1) were mobilized according to the scheme shown in FIG. 24 and mobilized cells transplanted into CD45.2 mice at limit dilution.

[8] = assay type: in vivo
[9] = MGTA-145 monotherapy 0.03 mg/kg
[10] = MGTA-145 monotherapy, the other doses
[11] = higher doses (0.075, 0.15, 0.3 mg/kg), 2 hours post administration
[12] = lower doses (0.0075, 0.015, 0.03 mg/kg)

Substance: Gro-β T N65D: SEQ ID NO: 4; Gro-β T with aspartic acid in place of asparagine at position 65
- potency (hematopoietic stem and progenitor cell mobilization) relative to Gro-β T ([1]; U.S. Pat. No. 6,447,766): substantially greater than that of Gro-β T

Substance: MGTA-145: Gro-β T (SEQ ID NO: 2), truncated Gro-β with deletion of the first four N-terminal amino acids; CXCR2 agonist
- CXCR2 expression recovery prior to the second dose (CXCR2; MGTA-145 0.07 mg/kg, staggered dosing with plerixafor, two consecutive days): ~80 % of baseline
- CXCR2 on peripheral neutrophils (CXCR2; MGTA-145 monotherapy, followed by recovery over 24 hours): rapid downregulation
- fold increase of CD34+ cells (CD34+ cells [2]; [9]): 7 fold
- peak concentration of CD34+ cells (CD34+ cells [2]; [9]): ~10 cells/μL
- time of peak CD34+ mobilization post administration (CD34+ cells [2]; MGTA-145 monotherapy, across six doses 0.0075-0.3 mg/kg): about 30 minutes
- fold increase of CD34+ cells (CD34+ cells [2]; [10]): 2-3 fold
- peak concentration of CD34+ cells (CD34+ cells [2]; MGTA-145 monotherapy, the other doses (0.0075, 0.015, 0.075, 0.15, 0.3 mg/kg)): ~5 cells/μL
- Percent ≥20/μL (CD34+ cells [2]; MGTA-145 0.03 mg/kg): 0%
- Peak CD34+ (#/μL) Median (CD34+ cells [2]; MGTA-145 0.3 mg/kg): 3 #/μL
- Percent ≥20/μL (CD34+ cells [2]; MGTA-145 0.3 mg/kg): 0%
- Peak CD34+ (#/μL) Median (CD34+ cells [2]; MGTA-145 on Day 1, 0.03 mg/kg): 12 #/μL
- Subjects with any drug related TEAE ([3]; MGTA-145 0.0075-0.3 mg/kg): 19 (79.2) n (%)
- Back pain/Musculoskeletal pain [3]: 19 (79.2) n (%)
- fold change relative to baseline of CD66 ([4]; all doses except the highest (0.3 mg/kg)): < 2 fold
- fold change relative to baseline of CD11b and CD18 ([4]; all six doses): < 2 fold
- fold change relative to baseline of L-selectin ([4]; all six doses): < 2 fold
- potency to induce hematopoietic stem and progenitor cell mobilization relative to Gro-β ([1]; U.S. Pat. No. 6,080,398): superior to that of Gro-β by multiple orders of magnitude
- initial plateau of neutrophil mobilization (neutrophils; [11]): 5-8 ×10^3 cells/μL
- peak mobilization of neutrophils (neutrophils; [12]): 13-15 ×10^3 cells/μL
- engraftment at day 100 follow-up ([5]; 14 patients): durable engraftment
- engraftment after transplant ([5]; 18 transplanted patients): All patients have engrafted
- median time to platelet engraftment (platelets ≥20,000×10^6/L, no transfusion in 7 days) ([5]; 18 transplanted patients): 17.5 days
- patients needing RBC transfusion ([5]; 18 transplanted patients): 17%
- median time to neutrophil engraftment ([5]; 18 transplanted patients, range 11-15): 12 days
- molar ratio of MMP-9:TIMP-1 (MMP-9): rapid increase 30 minutes post-administration
- plasma levels of MMP-9 (MMP-9): increased sharply within 30 minutes post-administration
- CD34+/kg Mean (CD34+ cells [6]; MGTA-145 0.03 mg/kg): 4.1 x10^6
- CD34+/kg Median (CD34+ cells [6]; MGTA-145 0.03 mg/kg): 4.3 x10^6
- CD90+/kg Mean (CD34+CD90+CD45RA− cells) (CD34+ cells [6]; MGTA-145 0.03 mg/kg): 1.3 x10^6
- CD90+/kg Median (CD34+CD90+CD45RA− cells) (CD34+ cells [6]; MGTA-145 0.03 mg/kg): 1.5 x10^6
- Total CD34+ Yield Median (range) (CD34+ cells [6]; MGTA-145 0.03 mg/kg): 321 (239-500) x10^6
- CD90+ (% of CD34+) (CD34+ cells [6]; MGTA-145 0.03 mg/kg, 0.03 mg/kg): 31%
- CD90+/kg Mean (CD34+CD90+CD45RA− cells) (CD34+ cells [6]; MGTA-145 […]): 1.4 x10^6
- CD90+/kg Median (CD34+CD90+CD45RA− cells) (CD34+ cells [6]; MGTA-145 […]): 1.2 x10^6
- CD90+ (% of CD34+) (CD34+ cells [6]; MGTA-145 […], […]): 37%
- fold increase of CD34+CD90+CD45RA− cells (CD34+CD90+CD45RA− cells; [9]): ~8.3 fold
- peak concentration of CD34+CD90+CD45RA− cells (CD34+CD90+CD45RA− cells; [9]): ~3 cells/μL
- time of peak CD34+CD90+CD45RA− mobilization post administration (CD34+CD90+CD45RA− cells; MGTA-145 monotherapy, six doses): 30 min
- fold increase of CD34+CD90+CD45RA− cells (CD34+CD90+CD45RA− cells; [10]): 2-3.5 fold
- peak concentration of CD34+CD90+CD45RA− cells (CD34+CD90+CD45RA− cells; [10]): 1-1.6 cells/μL
- initial plateau of WBC mobilization (white blood cells (WBCs); [11]): 6-10 ×10^3 cells/μL
- peak mobilization of WBCs (white blood cells (WBCs); [12]): 15-17 ×10^3 cells/μL
- engraftment rates, secondary transplantation [7]: vastly improved engraftment rates
- median severity of pain on a scale of 1-10 [8]: 8 (3-10)
- patients experiencing hyperhidrosis [8]: 4%
- patients experiencing nausea [8]: 8%
- patients experiencing thrombocytopenia [8]: 8%
- patients experiencing vomiting (grade 2) [8]: 4%
- patients with TEAEs at least possibly related to MGTA-145 [8]: 60%
- patients with acute pain [8]: 9 patients
- patients experiencing pain ([8]; 11 patients): 50%
- patients with acute onset transient bone pain with MGTA-145 ([8]; 25 patients): 38%
- patients with pain (all grade 1) ([8]; 25 patients): 44%
- patients with at least 1 treatment emergent AE with MGTA-145 ([8]; 25 patients, grade 1 n=14, grade 2 n=1): 60%
- duration of acute onset transient bone pain ([8]; 25 patients, range 3-28): 7 min
- patients with at least 1 adverse event ([8]; initial cohort): 90%
- patients with grade 2 AEs (anemia, hypokalemia) ([8]; initial cohort): 20%
- patients with grade 3 AEs (worsening of baseline grade 3 anemia; hypocalcemia) ([8]; initial cohort): 20%
- tolerability ([8]; multiple myeloma patients): well tolerated
- onset of acute and transient bone pain after start of MGTA-145 infusion (median) ([8]; range 3-10): about 5 minutes
- median duration of acute and transient bone pain ([8]; range 3-28): 7 min
